Data reported in ChEMBL document CHEMBL3425505, “Selected hybrid natural products as tubulin modulators” (Eur J Med Chem, 2015).
≈ marks a conversion by molar mass, not a printed value.

Legend:
[1] = Cytotoxicity against human H460 cells; assay type: functional, cell-based; conditions: NCI-H460
MCF7 = assay: Cytotoxicity against human MCF7 cells; assay type: functional, cell-based
A2780 = assay: Cytotoxicity against human A2780 cells; assay type: functional, cell-based
B16 = assay: Cytotoxicity against mouse B16 cells; assay type: functional, cell-based
CCRF-CEM = assay: Growth inhibition of human CCRF-CEM cells; assay type: functional
SR = assay: Growth inhibition of human SR cells; assay type: functional
Homo sapiens [2] = species: Homo sapiens; assay: Toxicity in metastatic breast cancer patient assessed as neuropathy rate; assay type: organism-based; conditions: in vivo
Homo sapiens [3] = species: Homo sapiens; assay: Toxicity in metastatic breast cancer patient assessed as incidence of peripheral neuropathy; assay type: organism-based; conditions: in vivo
Homo sapiens [4] = species: Homo sapiens; assay: Toxicity in metastatic breast cancer patient assessed as incidence of neuropathy; assay type: organism-based; conditions: in vivo

CO[C@H]1/C=C(/C)CCC[C@H](C)[C@H](O)[C@@H](C)C(=O)C(C)(C)[C@@H](O)CC(=O)O[C@@H]1/C(C)=C/c1csc(C)n1
IC50 [1]: 4.9 nM | IC50 (MCF7): 3.7 nM

C/C(=C\c1csc(C)n1)[C@@H]1C[C@@H]2O[C@@H]2CCC[C@@H]2CCC[C@@H](C(=O)C(C)(C)[C@@H](O)CC(=O)O1)[C@H]2O
EC50 (A2780): 8500 nM

C/C(=C\c1csc(C)n1)[C@@H]1C[C@@H]2O[C@]2(C)CCC[C@@H]2CCC[C@@H](C(=O)C(C)(C)[C@@H](O)CC(=O)O1)[C@H]2O
EC50 (A2780): 8500 nM

C=C1C[C@@H]2CC[C@@]34O[C@@H]5[C@@H]6O[C@](O)([C@H](O3)[C@@H]6O[C@H]3CC[C@H](CC(=O)O[C@@H]6[C@@H](C)[C@@H]7O[C@@H]8C[C@]9(C[C@@H]%10O[C@]%11(C[C@H](C)[C@@H]%12O[C@H](CC(=O)O)[C@H](O)C[C@@H]%12O%11)C[C@H](C)[C@@H]%10O9)O[C@@H]8C[C@@H]7O[C@H]6C[C@H]6O[C@@H](CC[C@@H]1O2)C[C@@H](C)C6=C)O[C@H]53)[C@H]4O
IC50 (B16): 5 ng/mL (≈ 4.44 nM)

CC1=C(c2ccc(C)cn2)CC2/C=C(/C)CCC[C@H](C)[C@H](O)[C@@H](C)C(=O)C(C)(C)[C@@H](O)CC(=O)O[C@H]12 (single isomer, unassigned)
GI50 (CCRF-CEM): 2.7 nM | GI50 (SR): 2.9 nM

C=C1C[C@@H]2CC[C@@]34C[C@H]5O[C@H]6[C@@H](O3)[C@H]3O[C@H](CC[C@@H]3O[C@H]6[C@H]5O4)CC(=O)C[C@@H]3[C@@H](OC)[C@@H](C[C@H](O)CN)O[C@H]3C[C@H]3O[C@@H](CC[C@@H]1O2)C[C@@H](C)C3=C [ERIBULIN]
Activity (Homo sapiens [2]): 35% | Activity (Homo sapiens [3]): 31.4% | Activity (Homo sapiens [4]): 33.3%

C/C(=C\c1csc(C)n1)[C@@H]1C[C@@H]2O[C@]2(C)CCC[C@H](C)[C@H](O)[C@@H](C)C(=O)C(C)(C)[C@@H](O)CC(=O)N1 [IXABEPILONE]
Activity (Homo sapiens [2]): 63% | Activity (Homo sapiens [3]): 44% | Activity (Homo sapiens [4]): 48%
